Data: article PMC6170201 (Xenobiotica; the fate of foreign compounds in biological …, 2010)

How the values were obtained:
LS180 cells [1] = assay: Acetaminophen glucuronidation in intact LS180 cells; details: for effect on acetaminophen glucuronidation: LS180 cells; for inhibition of acetaminophen glucuronidation: initial screen, at the highest concentration tested, intact LS180 cells; for IC50: Homo sapiens, LS180, 24 h, read-out: IC50, acetaminophen glucuronidation; for fold difference in IC50, HLM versus intact LS180 cells: acetaminophen glucuronidation, more potent in LS180 cells
LS180 cell lysates = details: read-out: IC50, acetaminophen glucuronidation; (untreated) LS180 cell lysates
UGT1A6 [2] = biological target: T1, UGT1A6 (Homo sapiens, UniProt P19224); assay: Serotonin glucuronidation by pooled human liver microsomes
T1 sequence (P19224 27-532): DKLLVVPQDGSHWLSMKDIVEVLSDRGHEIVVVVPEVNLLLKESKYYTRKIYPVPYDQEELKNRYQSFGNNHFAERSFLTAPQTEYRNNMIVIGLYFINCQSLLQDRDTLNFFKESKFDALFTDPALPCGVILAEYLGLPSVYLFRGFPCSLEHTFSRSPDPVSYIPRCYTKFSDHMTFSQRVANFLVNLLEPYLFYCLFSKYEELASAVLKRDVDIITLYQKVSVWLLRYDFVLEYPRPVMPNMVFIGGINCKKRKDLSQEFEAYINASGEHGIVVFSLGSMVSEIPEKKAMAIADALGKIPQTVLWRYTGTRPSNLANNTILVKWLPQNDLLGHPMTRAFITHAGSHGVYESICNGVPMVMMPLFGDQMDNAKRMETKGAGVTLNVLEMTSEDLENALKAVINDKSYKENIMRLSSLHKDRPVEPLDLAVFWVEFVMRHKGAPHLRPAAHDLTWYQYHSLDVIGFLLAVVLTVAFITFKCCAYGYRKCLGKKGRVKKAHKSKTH

UGT1A6 [3] = biological target: T1, UGT1A6; assay: Serotonin glucuronidation, treated intact UGT1A6-infected Sf9 cells
UGT1A6 [4] = biological target: T1, UGT1A6; assay: Serotonin glucuronidation, UGT1A6-infected Sf9 treated cell lysates
UGT1A6 [5] = biological target: T1, UGT1A6; assay: Acetaminophen glucuronidation, treated intact UGT1A6-infected Sf9 cells
LS180 cells [6] = details: 250 nM, substrate not clear, ref Basu et al. 2008; cited from earlier work
PKC α = details: reported value, no reference given; cited from earlier work
PKC β1 = details: reported value, no reference given; cited from earlier work
human liver microsomes = assay: Acetaminophen glucuronidation by pooled human liver microsomes; type: biochemical; details: read-out: IC50, acetaminophen glucuronidation; HLM, 10 mM acetaminophen
LS180 cells [7] = details: ref Basu et al. 2003; Gutmann et al. 2006; cited from earlier work
[8] = test system: SW480 colon adenocarcinoma cells; details: 50 μM, 12 hr treatment, ref Masur et al. 2001; cited from earlier work
HT29 = details: HT29, 24 hr, concentrations up to 10μM; ref Tillman et al. 2003; cited from earlier work
HCT8 = details: HCT8, 24 hr, concentrations up to 10μM; ref Tillman et al. 2003; cited from earlier work
HCT116 = details: HCT116, 24 hr, concentrations up to 10μM; ref Tillman et al. 2003; cited from earlier work
PKC = details: 600 μM, human astrocytoma cells; ref Kurita et al. 2007; cited from earlier work
UGT1A1 = UGT1A1 expressed in COS-1 cells; ref Basu et al. 2003; Basu et al. 2005; cited from earlier work
UGT1A7 = UGT1A7 expressed in COS-1 cells; ref Basu et al. 2003; Basu et al. 2005; cited from earlier work
UGT1A10 [9] = details: UGT1A10 expressed in COS-1 cells; ref Basu et al. 2003; Basu et al. 2005; cited from earlier work
UGT1A10 [10] = details: UGT1A10-transfected COS-1 cells; ref Basu et al. 2008; cited from earlier work
[11] = concentrations more than 20 times reported selective PKC IC50 values

SMILES	effect on acetaminophen glucuronidation (LS180 cells [1]; [11])	inhibition of acetaminophen glucuronidation (LS180 cells [1])	IC50 (LS180 cells [1])	IC50 (UGT1A6 [2])	IC50 (UGT1A6 [3])	IC50 (UGT1A6 [4])	IC50 (UGT1A6 [5])	fold difference in IC50, HLM versus intact LS180 cells (LS180 cells [1])	further results
O=C1NC(=O)c2cc(Nc3ccc(F)cc3)c(Nc3ccc(F)cc3)cc21 [CGP-53353]	did not show significant inhibitory activity	≤ 50%							
COc1cc(/C=C/C(=O)CC(=O)/C=C/c2ccc(O)c(OC)c2)ccc1O [curcumin, Curcumin]			12.1 ± 0.4 µM	73.9 ± 1 µM	64.9 ± 7.5 µM	31.6 ± 2.4 µM	58.9 ± 4.5 µM		IC50 (LS180 cell lysates): 60.9 ± 12.2 µM
CN(C)C[C@@H]1CCn2cc(c3ccccc32)C2=C(C(=O)NC2=O)c2cn(c3ccccc23)CCO1 [LY-333531, (S)-13-[(dimethylamino)methyl]-10,11,14,15-tetrahydro-4,9:16, 21-dimetheno-1H, 13H-dibenzo[e,k]pyrrolo[3,4-h][1,4,13]oxadiazacyclohexadecene-1,3(2H)-d ione]	did not show significant inhibitory activity	≤ 50%							
CN(C)C[C@H]1CCn2c(c(C3=C(c4cn(C)c5ccccc45)C(=O)NC3=O)c3ccccc32)C1 [Ro 32–0432]	did not show significant inhibitory activity	≤ 50%							inhibition of glucuronidation activity (LS180 cells [6]): 30%; IC50 (PKC α): […]; IC50 (PKC β1): […]
O=C1NC(=O)C(c2cn(CCCn3ccnc3)c3ccccc23)=C1Nc1ccccc1 [PKC-β inhibitor]	did not show significant inhibitory activity	≤ 50%							
Cc1cc(O)c2c(=O)c3c(O)cc(O)c4c5c(O)cc(O)c6c(=O)c7c(O)cc(C)c8c1c2c(c34)c(c78)c65 [hypericin]			7.1 ± 0.6 µM		0.59 ± 0.05 µM	> 30 µM	0.55 ± 0.04 µM	over 3.5 fold	IC50 (human liver microsomes): > 30 µM; concentration up to which not toxic in LS180 cells (LS180 cells [7]): up to 10 μM; fold lower IC50 in Sf9 cells compared with LS180 cells (UGT1A6 [5]; acetaminophen glucuronidation): 10 fold
CC(=O)c1c(O)c(C)c(O)c(Cc2c(O)c3c(c(C(=O)/C=C/c4ccccc4)c2O)OC(C)(C)C=C3)c1O [rottlerin]			9 ± 1.2 µM	> 40 µM	> 40 µM	> 40 µM	> 40 µM	over 3.5 fold	IC50 (human liver microsomes): > 40 µM; effect on viability of cells [8]: no effect; induction of apoptosis (HT29): did not induce apoptosis; induction of apoptosis (HCT8): did not induce apoptosis; induction of apoptosis (HCT116): did not induce apoptosis
CCCC(CCC)C(=O)O [Valproic acid, valproic acid]		≤ 50%							inhibition of PKC (PKC): 40%; effect on acetaminophen glucuronidation (LS180 cells [1]; 80 μM and 350 μM): not inhibitory
COc1c(C[C@@H](C)OC(=O)Oc2ccc(O)cc2)c2c3c(C[C@@H](C)OC(=O)c4ccccc4)c(OC)c(=O)c4c(O)cc(OC)c(c5c(OC)cc(O)c(c1=O)c52)c43 [calphostin-C]			0.14 ± 0.03 µM	> 2 µM	0.5 ± 0.1 µM	> 2 µM	0.83 ± 0.1 µM	over 3.5 fold	concentration up to which not toxic in LS180 cells (LS180 cells [7]): up to 1 μM; effect on glucuronidation of anthraflavic acid (UGT1A1): inhibits; effect on glucuronidation of bilirubin (UGT1A1): inhibits; effect on glucuronidation of capsaicin (UGT1A7): inhibits; effect on glucuronidation of eugenol (UGT1A10 [9]): inhibits; effect on phosphorylation of UGT1A10 (UGT1A10 [10]): dose-dependent decrease; fold higher IC50 in insect cells versus LS180 cells (UGT1A6 [5]; acetaminophen glucuronidation): about 4 fold
